Assay results: patent US6335330B1, “Crystalline pharmaceutical product” (SmithKline Beecham Corporation, priority 1996, dated 2002)
Structures can show the parent of a compound that is named as a salt. Where two headings read alike, the source gives them in different places.

Columns and labels:
Format in all cases: physicochemical
Solubility in water = test: Solubility in water
[1] = Hygroscopicity / water content (Karl Fischer analysis)
Text: The present invention provides (S)-7-[(4,4′-bipiperidin- 1-yl)carbonyl]-2,3,4,5-tetrahydro-4-methyl-3-oxo-1H-1,4-benzodiazepine-2-acetic acid, hydrochloride, formula (I), as a novel material, and, in particular, as a pharmaceutically acceptable form. The material crystallizes preferably with one mole of HCl, and appears to exist in a generally anhydrous form. Although small amounts of water may be detected by Karl Fischer analysis, this is generally less than 1-2% w/w of the drug substance, and it appears to be consistent irrespective of the storage conditions. […] Accordingly, the hydrochloride salt form offers significant advantages for bulk material consistency, handling, and formulation.

[2] = Thermal stability of solid samples (3 days at 100° C., hplc); conditions: for increase in organic impurities: hplc, by area
[3] = Thermal stability over an extended period (shelf life); conditions: impairs shelf life

## CN1Cc2cc(C(=O)N3CCC(C4CCNCC4)CC3)ccc2N[C@@H](CC(=O)O)C1=O [HCl Salt, (S)-7-[(4,4′-bipiperidin-1-yl)carbonyl]-2,3,4,5-tetrahydro-4-methyl-3-oxo-1H-1,4-benzodiazepine-2-acetic acid, hydrochloride]
Solubility in water
  dissolution and solubility in water (in words): enhanced dissolution and solubility in water
  solubility in water relative to the zwitterion: about ten
[1]; consistent irrespective of the storage conditions
  water detected by Karl Fischer analysis: 1-2 % w/w
[1]; t = 0, hydrochloride
  Hygroscopicity (% w/w Karl Fischer analysis): 0.9 % w/w
[1]; t = 21 days, hydrochloride
  Hygroscopicity (% w/w Karl Fischer analysis): 0.8 % w/w
[2]; hydrochloride
  increase in organic impurities: no increase
  Thermal Stability: Stable

## CN1Cc2cc(C(=O)N3CCC(C4CCNCC4)CC3)ccc2N[C@@H](CC(=O)O)C1=O [Zwitterion, (S)-7-[(4,4′-bipiperidin-1-yl)carbonyl]-2,3,4,5-tetrahydro-4-methyl-3-oxo-1H-1,4-benzodiazepine-2-acetic acid]
[1]; equilibrating species
  water taken up on equilibration: about six
[1]; material prepared according to WO 95/18619
  hygroscopicity (in words): hygroscopic
[1]; t = 0
  Hygroscopicity (% w/w Karl Fischer analysis): 5.6 % w/w
[1]; t = 21 days
  Hygroscopicity (% w/w Karl Fischer analysis): 20.1 % w/w
[2]
  Thermal Stability: some degradation,
  increase in organic impurities: impurities by 1.3% (hplc,

## CN1Cc2cc(C(=O)N3CCC(C4CCNCC4)CC3)ccc2N[C@@H](CC(=O)O)C1=O [trifluoroacetate salt]
[3]
  thermal stability for an extended period: not thermally stable for an extended period
